Data as given in US5945566A, “Amino compounds of 6,7,8,9-tetrahydro-cyclopenta[a]naphthalene and of 2,3-dihydro-cyclopenta[e]indene” (Adir et Compagnie, priority 1997, dated 1999).

What was measured:
[1] = molecular target: T1, human dopamine D3 receptor (Homo sapiens, UniProt P35462); assay: human D3 receptor binding ([125I]-iodosulpride, CHO membranes)
T1 construct: expressed in transfected cells; membranes
Protocol: (§1) .check mark. In vitro: human D2 and D3 receptor binding study
(§2) CHO (Chinese Hamster Ovary) cells were transfected in a stable manner by the gene that codes for the human dopamine D2 or D3 receptor according to methods known from the literature. The native cells are deficient in the enzyme DHFR (DiHydroFolate Reductase). The cells are cultured in an incubator at 37° C. in a humid atmosphere of 5% CO2 /95% air. The transfections are carried out using Lipofectin (Gibco). The CHO cells, co-transfected with the human D2 receptor and the gene for resistance to phleomycin, were selected for their resistance to the presence of that antibiotic in the culture medium. The cells transfected with the human D3 receptor were selected in a medium containing no hypoxanthine/thymidine in the presence of methotrexate. […]
(§3) The ranges of concentration of each compound include at least seven points determined in triplicate, each experiment being repeated at least twice.
(§4) The incubation, which lasts for thirty minutes at 30° C., is terminated by means of rapid filtration over a Brandle apparatus, followed by three consecutive rinses with Tris-HCl buffer, pH 7.4, containing 120 mM NaCl. The filters recovered are then counted using a gamma counter. […]

[2] = molecular target: T2, human dopamine D2 receptor (Homo sapiens, UniProt P14416); assay: human D2 receptor binding ([125I]-iodosulpride, CHO membranes); conditions: dissociation constant of radioligand
T2 construct: expressed in transfected cells; membranes
T2 sequence (P14416 whole entry): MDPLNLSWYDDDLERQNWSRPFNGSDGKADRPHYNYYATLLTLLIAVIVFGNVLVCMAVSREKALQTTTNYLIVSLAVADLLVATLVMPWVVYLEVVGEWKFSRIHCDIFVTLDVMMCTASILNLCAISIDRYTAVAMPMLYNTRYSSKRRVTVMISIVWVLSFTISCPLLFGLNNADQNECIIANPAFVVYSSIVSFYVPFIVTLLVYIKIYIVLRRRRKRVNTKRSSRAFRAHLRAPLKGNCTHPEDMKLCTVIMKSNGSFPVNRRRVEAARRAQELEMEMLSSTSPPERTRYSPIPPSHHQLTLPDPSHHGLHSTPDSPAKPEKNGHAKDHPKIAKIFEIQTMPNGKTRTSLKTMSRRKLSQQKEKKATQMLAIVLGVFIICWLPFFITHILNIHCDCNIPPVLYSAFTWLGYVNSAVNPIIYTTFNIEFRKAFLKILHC
Protocol: as §1, §2, §3, §4

T1 sequence (P35462 whole entry): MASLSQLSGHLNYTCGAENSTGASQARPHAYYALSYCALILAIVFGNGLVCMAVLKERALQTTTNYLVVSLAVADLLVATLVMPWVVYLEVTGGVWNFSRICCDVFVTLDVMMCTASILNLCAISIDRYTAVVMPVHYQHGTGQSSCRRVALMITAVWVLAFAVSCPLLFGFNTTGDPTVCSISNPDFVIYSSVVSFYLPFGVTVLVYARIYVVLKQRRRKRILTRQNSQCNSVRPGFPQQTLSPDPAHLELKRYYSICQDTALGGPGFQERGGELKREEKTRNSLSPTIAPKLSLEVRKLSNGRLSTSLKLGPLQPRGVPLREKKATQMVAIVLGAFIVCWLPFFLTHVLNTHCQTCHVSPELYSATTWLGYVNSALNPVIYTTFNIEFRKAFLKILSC

| Compound | Ki ([1]; [125I]-iodosulpride 0.2 nM, CHO membranes, pKi = -logKi) [nM] | Kd [2] [nM] | Kd ([1]; dissociation constant of radioligand) [nM] |
| --- | --- | --- | --- |
| CCCN(CCC)C1CCc2c(ccc3c2C(=O)CC3)C1 (racemic) [Example 2, (7R,S)-7-(N,N-Dipropylamino)-6,7,8,9-tetrahydro-cyclopenta[a]-naphthalen-1-one] | 10 | – | – |
| [^125 I]-iodosulpride | – | 0.5 | 1.31 |
